# Experimental data published in publication PMC8968665, “Verteporfin is a substrate-selective γ-secretase inhibitor that binds the amyloid precursor protein transmembrane domain” (The Journal of Biological Chemistry, 2022).
# Entries after “also recorded” stand apart in the source; their conditions may differ.
# Tests used:
# C99 L723A = test system: T1, C99 L723A; assay: TROSY NMR titration of C99 L723A mutant by verteporfin; assay type: binding, human; details: LMPG micelles, up to 300 µM verteporfin, n=1
# T1 construct: the transmembrane 99 residue C-terminal (C99) domain; hexa-His; made in house
# Procedure: A Bruker Avance III 600 MHz NMR spectrometer equipped with a cryoprobe (CPTCI) and automated sample changer (SampleJet) was used to collect NMR spectra. Sample details are described above. For high-throughput screening data collection, the ^15N-^1H BEST-TROSY (b_trosy3gpph.2) experiment with 64 scans for each of 96 increments and a relaxation delay of 200 ms was run at 318 K for a total data acquisition time of 35 min per sample. To achieve enhanced signal-to-noise ratio, follow-up titrations and control experiments were conducted using the BEST-TROSY pulse program with 200 scans per 96 increments at 318 K, for a total data acquisition time of 110 min per sample. Data were processed using Bruker Topspin 3.6 using a Gaussian window function with a line broadening of -10 and a Gaussian max of 0.1 in both dimensions. NMR data were then further processed and analyzed using NMR-FAM SPARKY, plotted using GraphPad Prism 9, and prepared for publication figures using Affinity Designer.
# [1] = target: T2, γ-secretase cleavage of Notch-1 TM/JM (Homo sapiens, UniProt P49768+Q92542+Q96BI3+Q9NZ42); assay: γ-Secretase assay, Notch-1 TM/JM cleavage, NICD by anti-V1744 Western blot; assay type: biochemical
# T2 construct: made in house; host or cells: Notch-1 TM/JM: E. coli BL21DE3 Star
# T2 sequence (Q92542 34-709, other chains not shown): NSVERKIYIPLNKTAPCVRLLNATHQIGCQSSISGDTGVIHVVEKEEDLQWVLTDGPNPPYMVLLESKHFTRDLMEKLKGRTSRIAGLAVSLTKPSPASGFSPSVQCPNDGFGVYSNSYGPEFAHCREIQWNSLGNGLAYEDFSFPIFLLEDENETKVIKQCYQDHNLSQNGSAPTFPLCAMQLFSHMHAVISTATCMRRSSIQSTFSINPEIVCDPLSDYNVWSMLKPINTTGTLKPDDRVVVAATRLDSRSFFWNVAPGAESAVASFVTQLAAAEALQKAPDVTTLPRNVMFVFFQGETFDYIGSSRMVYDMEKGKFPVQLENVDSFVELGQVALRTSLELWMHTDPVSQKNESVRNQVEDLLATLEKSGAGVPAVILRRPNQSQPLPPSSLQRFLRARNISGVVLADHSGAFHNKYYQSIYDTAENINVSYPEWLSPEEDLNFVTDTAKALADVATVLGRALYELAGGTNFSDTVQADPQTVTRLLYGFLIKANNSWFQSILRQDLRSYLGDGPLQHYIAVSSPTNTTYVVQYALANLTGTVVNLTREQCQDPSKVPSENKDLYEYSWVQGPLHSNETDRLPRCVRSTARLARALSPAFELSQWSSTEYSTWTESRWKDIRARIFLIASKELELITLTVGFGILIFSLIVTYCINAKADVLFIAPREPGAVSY
# T2 sequence (Q96BI3 whole entry, other chains not shown): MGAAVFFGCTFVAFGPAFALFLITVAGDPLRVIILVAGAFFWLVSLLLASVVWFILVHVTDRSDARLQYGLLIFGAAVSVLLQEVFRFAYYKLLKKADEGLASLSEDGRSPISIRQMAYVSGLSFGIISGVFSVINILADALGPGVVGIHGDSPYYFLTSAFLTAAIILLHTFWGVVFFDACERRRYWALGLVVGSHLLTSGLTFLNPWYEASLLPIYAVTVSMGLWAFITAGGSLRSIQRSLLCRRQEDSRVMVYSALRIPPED
# T2 sequence (Q9NZ42 whole entry, other chains not shown): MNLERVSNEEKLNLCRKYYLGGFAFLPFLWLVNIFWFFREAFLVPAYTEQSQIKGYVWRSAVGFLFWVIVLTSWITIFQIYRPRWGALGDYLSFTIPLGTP
# Procedure: The γ-secretase-dependent proteolysis assays with both substrates (C100-FLAG and HexaHis Notch 1 JM/TM) were performed in a weak zwitterionic detergent (CHAPSO, 3-[(3- cholamidopropyl)dimethylammonio]-2-hydroxy-1-propanesulfonate) solubilized conditions ([79], [80]). C100 is C99 with an added N-terminal Met residue. Stock solution of purified γ-secretase ([81], [82]) was diluted to 30 nM in standard assay buffer containing 50 mM HEPES (pH 7.0), 150 mM NaCl, 0.1% DOPC (phosphatidylcholine), 0.025% DOPE (phosphatidylethanolamine), and 0.25% CHAPSO) and incubated at 37 °C for 30 min, whereupon stock solution of verteporfin or inhibitor (LY411,575) was added to achieve the desired concentration with 1% final DMSO concentration. Proteolytic reactions were initiated by adding purified substrates (either C100-FLAG(79) or HexaHis-Notch 1 JM/TM(77)) and incubating at 37 °C (16 h for C100Flag and 4 h for HexaHis-Notch 1 JM/TM). Reactions were quenched with SDS, and the cleaved intracellular domain products (AICD-FLAG released from C100-FLAG or truncated intracellular domain (NICD) released from the proteolysis of Hexa-His Notch 1 JM/TM) were visualized by Western blot using specific primary antibodies, anti-FLAG antibody for FLAG-tagged AICD, and neoepitope-specific anti-V1744 antibody for NICD ([80], [83], [84]).
# [2] = target: T3, γ-secretase cleavage of C100-Flag (C99) (Homo sapiens, UniProt P05067); assay: γ-Secretase IC50 measurement, Aβ40 sandwich ELISA; assay type: biochemical; details: 1 nM purified γ-secretase, 2 µM C100-Flag, 2 h, 37 °C, n=1, error of the fit; read-out: IC50, inhibition of Aβ40 production
# T3 construct: C100 is C99 with an added N-terminal Met residue; made in house
# T3 sequence (P05067 672-770 limits assumed): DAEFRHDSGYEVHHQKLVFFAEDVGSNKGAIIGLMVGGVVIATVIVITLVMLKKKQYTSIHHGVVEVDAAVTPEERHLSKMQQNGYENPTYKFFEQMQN
# Procedure: Purified γ-secretase was diluted in standard assay buffer to specified concentrations and incubated at 37 °C for 30 min, followed by the addition of stock solution of verteporfin in DMSO to achieve various final verteporfin concentrations and 2% final DMSO concentration. Purified C99 FLAG was then added to start the proteolytic reactions, which were incubated for 2 h at 37 °C. The concentrations of Aβ40 produced during the proteolysis of C100 FLAG by γ-secretase were determined using a specific sandwich ELISA (Invitrogen). Aβ40 concentrations were plotted as a function of verteporfin concentration, and the resultant sigmoidal curves were fitted to Equation 5 to determine IC50 values ([80], [83]).(5) Y=Min+(Max−Min)/1+(X/IC50)^HillCoefficient
# [3] = Verteporfin aggregation and LMPG micelle size (DLS, 1D 1H NMR); assay type: physicochemical
# Procedure: Samples were made according to NMR sample conditions. Solutions were first filtered with a 0.2 μm syringe filter then centrifuged at […] to remove insoluble debris. The solution was then added to the inner chamber of the disposable DLS cuvette. The disposable DLS cuvette was capped and loaded in the DLS instrument. Experiments were carried out at 25 °C. The DLS software (Dynamics 7.5 software; Wyatt Technologies) calculates an apparent hydrodynamic radius (Rh) via the Stokes–Einstein equation (Equation 6):(6) Rh=kT/6πηDt where k is Boltzmann’s constant, T is the absolute temperature, η is sample viscosity, and Dt is the diffusion coefficient. The apparent molecular weight of the detergent or verteporfin particles was calculated in the Dynamics software, as based on the measured apparent radius of hydration, using the assumption that the density of the particle was similar to that of a globular protein.
substance,measurement,setting,value
verteporfin,binding to C99 L723A,C99 L723A,nearly complete lack of binding; also recorded: binding was disrupted
same,reduction of Notch-1 cleavage at saturating verteporfin,[1]; 30 nM γ-secretase,approximately 75%
same,IC50,"[1]; 30 nM γ-secretase, Notch-1 TM/JM, 4 h, 37 °C, n = 3, estimated, at concentrations above 200 μM, read-out: IC50, inhibition of NICD production",240 ± 66 µM
same,inhibition of Notch-1 cleavage,[1]; verteporfin at 164 μM (IC50 for C99 cleavage),no inhibition
same,effect on Notch-1 cleavage at low concentrations,"[1]; verteporfin below ca. 200 μM, relative to 0 verteporfin",first activated; also recorded: enhanced; also recorded: stimulate
same,IC50,[2],15 ± 1 µM
same,effect on LMPG micelle particle size (DLS),"[3]; 0 to 200 μM verteporfin, 2.5% LMPG, n = 3",only modest effects on micelle particle size; also recorded: insensitive
same,state of verteporfin in micelle-free aqueous solution (1H NMR line width),"[3]; 100 μM verteporfin, LMPG below CMC, pH 6.5",aggregate formation
same,LMPG concentration at which soluble verteporfin aggregates are fully dispersed (DLS),"[3]; 100 μM verteporfin, n = 3",50 mM
